Experimental data published in patent US20080234276A1, “Heterocyclic Triazines as Hypoxic Selective Protein Kinase Inhibitors” (SENTINEL ONCOLOGY LIMITED, priority 2005, published 2008).

How the values were obtained:
Assay type in all cases: biochemical
p70S6K (h) = target: T1, p70S6K (h) (Homo sapiens, UniProt P23443); experiment: p70S6K (h) kinase assay (Upstate, 33P-ATP filtermat); settings: 100 uM of inhibitor, ATP 15 uM; for inhibition at 100 µM: read-out: P70S6 (h) % inhibition
T1 construct: purchased Upstate Ltd
T1 sequence (P23443 whole entry): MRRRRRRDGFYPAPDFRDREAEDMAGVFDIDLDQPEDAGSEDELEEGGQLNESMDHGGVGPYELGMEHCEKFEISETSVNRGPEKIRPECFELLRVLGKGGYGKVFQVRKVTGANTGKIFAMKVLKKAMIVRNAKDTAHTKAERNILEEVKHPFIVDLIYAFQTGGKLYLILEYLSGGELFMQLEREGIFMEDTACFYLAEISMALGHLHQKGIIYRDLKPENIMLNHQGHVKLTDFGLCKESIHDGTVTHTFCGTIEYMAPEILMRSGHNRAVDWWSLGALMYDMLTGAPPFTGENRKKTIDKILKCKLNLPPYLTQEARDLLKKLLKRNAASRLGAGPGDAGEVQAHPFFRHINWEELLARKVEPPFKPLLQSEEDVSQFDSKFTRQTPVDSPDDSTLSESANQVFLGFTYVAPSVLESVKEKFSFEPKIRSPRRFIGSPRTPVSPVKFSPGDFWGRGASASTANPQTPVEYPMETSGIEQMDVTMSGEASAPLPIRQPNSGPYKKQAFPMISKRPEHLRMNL
Description: (§1) The compounds of the invention prepared in Examples 1-32 were tested for kinase inhibition against a range of common protein kinases. All kinase assays were conducted at Upstate Ltd, Gemini Crescent, Dundee Technology Park, Dundee, DD2 1SW, UK in accordance with its standard protocols as follows:
(§2) In a final reaction volume of 25 μl, p70S6K (h) (5-10 mU) is incubated with 8 mM MOPS pH 7.0, 0.2 mM EDTA, 100 μM KKRNRTLTV, 10 mM MgAcetate and [[…]-33P-ATP] (specific activity approx. 500 cpm/pmol, concentration as required). The reaction is initiated by the addition of the MgATP mix. After incubation for 40 minutes at room temperature, the reaction is stopped by the addition of 5 μl of a 3% phosphoric acid solution. 10 μl of the reaction is then spotted onto a P30 filtermat and washed three times for 5 minutes in 75 mM phosphoric acid and once in methanol prior to drying and scintillation counting.
(§3) Data for compounds. ATP concentrations are: Arg=45 uM; abl=45 uM; AuroraA=15 uM; Chk1=90 uM; KDR=90 uM; P70S6=15 uM. Figures represent the % inhibition when tested at 100 uM of inhibitor.

CHK1 (h) = target: T2, CHK1 (h) (Homo sapiens, UniProt O14757); experiment: CHK1 (h) kinase assay (Upstate, 33P-ATP filtermat); settings: 100 uM of inhibitor; ATP 90 uM
T2 construct: purchased Upstate Ltd
T2 sequence (O14757 1-476): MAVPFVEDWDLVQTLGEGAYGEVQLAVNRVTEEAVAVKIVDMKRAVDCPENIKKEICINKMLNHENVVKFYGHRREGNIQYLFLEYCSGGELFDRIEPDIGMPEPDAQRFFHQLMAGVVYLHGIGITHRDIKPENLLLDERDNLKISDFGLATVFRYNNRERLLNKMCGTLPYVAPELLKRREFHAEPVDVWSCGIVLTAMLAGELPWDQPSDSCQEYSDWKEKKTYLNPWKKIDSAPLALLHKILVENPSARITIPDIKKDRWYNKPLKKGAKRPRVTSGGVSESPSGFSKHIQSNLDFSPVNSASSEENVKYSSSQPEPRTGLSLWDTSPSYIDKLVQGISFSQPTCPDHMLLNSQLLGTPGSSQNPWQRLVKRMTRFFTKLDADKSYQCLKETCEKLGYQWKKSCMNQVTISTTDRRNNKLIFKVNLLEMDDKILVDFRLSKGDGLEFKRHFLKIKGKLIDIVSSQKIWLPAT
Description: as §1
as §2, with “CHK1” for “p70S6K”, “200” for “100”, “[…],” for “KKRNRTLTV,”, “[…]-33P-ATP]” for “[[…]-33P-ATP]”
as §3

Aurora-A (h) = target: T3, Aurora-A (h) (Homo sapiens, UniProt O14965); experiment: Aurora-A (h) kinase assay (Upstate, 33P-ATP filtermat); settings: 100 uM of inhibitor, ATP 15 uM; for inhibition at 100 µM: read-out: AuroraA (h) % inhibition
T3 construct: purchased Upstate Ltd
T3 sequence (O14965 1-403): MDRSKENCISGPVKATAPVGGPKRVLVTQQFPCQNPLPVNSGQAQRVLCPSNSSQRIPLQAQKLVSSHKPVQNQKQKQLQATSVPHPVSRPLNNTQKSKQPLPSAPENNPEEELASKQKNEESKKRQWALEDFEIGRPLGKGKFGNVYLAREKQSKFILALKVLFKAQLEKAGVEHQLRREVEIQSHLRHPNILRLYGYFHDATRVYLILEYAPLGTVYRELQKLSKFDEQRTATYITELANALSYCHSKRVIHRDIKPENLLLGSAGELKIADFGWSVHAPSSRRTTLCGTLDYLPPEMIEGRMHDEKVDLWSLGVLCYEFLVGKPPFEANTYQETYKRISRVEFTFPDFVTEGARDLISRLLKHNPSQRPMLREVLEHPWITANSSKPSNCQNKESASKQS
Description: as §1
as §2, with “Aurora-A” for “p70S6K”, “200” for “100”, “LRRASLG (Kemptide),” for “KKRNRTLTV,”, “[…]-33P-ATP]” for “[[…]-33P-ATP]”, “50” for “75”
as §3

KDR (h) = target: T4, KDR (h) (Homo sapiens, UniProt P35968); experiment: KDR (h) kinase assay (Upstate, 33P-ATP filtermat); settings: 100 uM of inhibitor; ATP 90 uM
T4 construct: purchased Upstate Ltd
T4 sequence (P35968 20-1356): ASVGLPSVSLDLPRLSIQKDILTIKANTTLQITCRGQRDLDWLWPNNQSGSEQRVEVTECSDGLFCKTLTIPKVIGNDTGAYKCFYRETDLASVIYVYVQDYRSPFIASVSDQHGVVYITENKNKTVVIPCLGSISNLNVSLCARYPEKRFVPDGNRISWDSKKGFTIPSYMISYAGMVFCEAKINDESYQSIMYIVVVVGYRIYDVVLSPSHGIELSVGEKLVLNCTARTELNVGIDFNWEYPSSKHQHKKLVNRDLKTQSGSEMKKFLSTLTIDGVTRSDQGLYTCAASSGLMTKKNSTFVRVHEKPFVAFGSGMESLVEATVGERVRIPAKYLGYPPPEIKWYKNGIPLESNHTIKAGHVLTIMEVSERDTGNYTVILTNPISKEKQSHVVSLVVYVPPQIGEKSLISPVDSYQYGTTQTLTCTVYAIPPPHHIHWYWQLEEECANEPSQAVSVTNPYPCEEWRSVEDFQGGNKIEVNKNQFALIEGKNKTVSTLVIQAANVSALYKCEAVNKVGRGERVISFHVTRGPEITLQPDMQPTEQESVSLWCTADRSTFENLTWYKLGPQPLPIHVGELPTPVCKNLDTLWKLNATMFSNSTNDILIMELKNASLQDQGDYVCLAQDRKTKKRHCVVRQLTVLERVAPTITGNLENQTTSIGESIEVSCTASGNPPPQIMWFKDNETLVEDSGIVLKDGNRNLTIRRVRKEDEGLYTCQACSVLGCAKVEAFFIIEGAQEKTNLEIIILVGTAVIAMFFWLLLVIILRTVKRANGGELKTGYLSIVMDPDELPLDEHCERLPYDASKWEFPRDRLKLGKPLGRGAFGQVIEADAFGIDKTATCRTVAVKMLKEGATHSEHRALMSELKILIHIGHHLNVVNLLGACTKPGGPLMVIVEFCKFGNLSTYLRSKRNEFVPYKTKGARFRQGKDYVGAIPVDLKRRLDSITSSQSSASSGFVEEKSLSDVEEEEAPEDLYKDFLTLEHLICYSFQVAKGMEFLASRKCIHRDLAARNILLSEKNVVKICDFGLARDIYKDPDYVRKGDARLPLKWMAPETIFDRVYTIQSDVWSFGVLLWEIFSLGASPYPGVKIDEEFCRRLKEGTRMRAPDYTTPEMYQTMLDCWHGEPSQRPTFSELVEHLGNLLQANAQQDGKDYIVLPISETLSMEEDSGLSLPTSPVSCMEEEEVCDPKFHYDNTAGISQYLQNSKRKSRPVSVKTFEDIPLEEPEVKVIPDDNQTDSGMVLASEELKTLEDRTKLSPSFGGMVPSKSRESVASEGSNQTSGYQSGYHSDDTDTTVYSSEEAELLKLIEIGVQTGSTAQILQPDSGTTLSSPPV
Description: as §1
as §2, with “KDR” for “p70S6K”, “0.33 mg/ml myelin basic protein,” for “100 μM KKRNRTLTV,”
as §3

Abl (h) = target: T5, Abl (h) (Homo sapiens, UniProt P00519); experiment: Abl (h) kinase assay (Upstate, 33P-ATP filtermat); settings: 100 uM of inhibitor; ATP 45 uM
T5 construct: purchased Upstate Ltd
T5 sequence (P00519 whole entry): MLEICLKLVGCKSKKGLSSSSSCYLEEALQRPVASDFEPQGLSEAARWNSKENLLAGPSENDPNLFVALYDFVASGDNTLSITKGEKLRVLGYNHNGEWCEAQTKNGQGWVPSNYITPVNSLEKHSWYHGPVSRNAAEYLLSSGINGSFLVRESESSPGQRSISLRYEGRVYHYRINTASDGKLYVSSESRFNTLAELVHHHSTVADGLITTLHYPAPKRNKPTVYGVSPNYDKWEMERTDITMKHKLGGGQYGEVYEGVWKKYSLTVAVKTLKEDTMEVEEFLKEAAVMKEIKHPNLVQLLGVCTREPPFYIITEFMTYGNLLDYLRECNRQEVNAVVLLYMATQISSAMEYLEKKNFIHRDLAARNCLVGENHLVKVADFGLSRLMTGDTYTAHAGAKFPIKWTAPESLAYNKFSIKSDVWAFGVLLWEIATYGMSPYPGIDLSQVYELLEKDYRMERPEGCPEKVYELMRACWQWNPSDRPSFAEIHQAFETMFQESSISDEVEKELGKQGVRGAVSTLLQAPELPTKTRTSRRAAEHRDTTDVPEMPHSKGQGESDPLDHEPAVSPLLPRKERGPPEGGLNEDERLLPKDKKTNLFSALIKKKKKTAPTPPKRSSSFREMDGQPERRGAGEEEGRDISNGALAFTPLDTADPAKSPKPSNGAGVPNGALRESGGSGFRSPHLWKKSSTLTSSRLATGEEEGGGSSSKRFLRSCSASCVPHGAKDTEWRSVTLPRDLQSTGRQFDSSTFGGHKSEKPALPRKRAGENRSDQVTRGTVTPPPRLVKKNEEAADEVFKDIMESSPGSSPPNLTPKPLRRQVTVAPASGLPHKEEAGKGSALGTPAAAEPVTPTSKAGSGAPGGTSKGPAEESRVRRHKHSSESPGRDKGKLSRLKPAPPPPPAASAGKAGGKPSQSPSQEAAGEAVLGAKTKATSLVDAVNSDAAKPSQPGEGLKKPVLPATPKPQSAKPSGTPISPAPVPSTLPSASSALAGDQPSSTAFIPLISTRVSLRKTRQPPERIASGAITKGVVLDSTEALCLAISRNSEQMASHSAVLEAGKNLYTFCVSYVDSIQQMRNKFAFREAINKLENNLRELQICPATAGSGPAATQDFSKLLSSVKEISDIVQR
Description: as §1
as §2, with “Abl” for “p70S6K”, “50” for “100”, “EAIYAAPFAKKK,” for “KKRNRTLTV,”
as §3

Arg (h) = target: T6, Arg (h) (Homo sapiens, UniProt P42684); experiment: Arg (h) kinase assay (Upstate, 33P-ATP filtermat); settings: 100 uM of inhibitor; ATP 45 uM
T6 construct: purchased Upstate Ltd
T6 sequence (P42684 whole entry): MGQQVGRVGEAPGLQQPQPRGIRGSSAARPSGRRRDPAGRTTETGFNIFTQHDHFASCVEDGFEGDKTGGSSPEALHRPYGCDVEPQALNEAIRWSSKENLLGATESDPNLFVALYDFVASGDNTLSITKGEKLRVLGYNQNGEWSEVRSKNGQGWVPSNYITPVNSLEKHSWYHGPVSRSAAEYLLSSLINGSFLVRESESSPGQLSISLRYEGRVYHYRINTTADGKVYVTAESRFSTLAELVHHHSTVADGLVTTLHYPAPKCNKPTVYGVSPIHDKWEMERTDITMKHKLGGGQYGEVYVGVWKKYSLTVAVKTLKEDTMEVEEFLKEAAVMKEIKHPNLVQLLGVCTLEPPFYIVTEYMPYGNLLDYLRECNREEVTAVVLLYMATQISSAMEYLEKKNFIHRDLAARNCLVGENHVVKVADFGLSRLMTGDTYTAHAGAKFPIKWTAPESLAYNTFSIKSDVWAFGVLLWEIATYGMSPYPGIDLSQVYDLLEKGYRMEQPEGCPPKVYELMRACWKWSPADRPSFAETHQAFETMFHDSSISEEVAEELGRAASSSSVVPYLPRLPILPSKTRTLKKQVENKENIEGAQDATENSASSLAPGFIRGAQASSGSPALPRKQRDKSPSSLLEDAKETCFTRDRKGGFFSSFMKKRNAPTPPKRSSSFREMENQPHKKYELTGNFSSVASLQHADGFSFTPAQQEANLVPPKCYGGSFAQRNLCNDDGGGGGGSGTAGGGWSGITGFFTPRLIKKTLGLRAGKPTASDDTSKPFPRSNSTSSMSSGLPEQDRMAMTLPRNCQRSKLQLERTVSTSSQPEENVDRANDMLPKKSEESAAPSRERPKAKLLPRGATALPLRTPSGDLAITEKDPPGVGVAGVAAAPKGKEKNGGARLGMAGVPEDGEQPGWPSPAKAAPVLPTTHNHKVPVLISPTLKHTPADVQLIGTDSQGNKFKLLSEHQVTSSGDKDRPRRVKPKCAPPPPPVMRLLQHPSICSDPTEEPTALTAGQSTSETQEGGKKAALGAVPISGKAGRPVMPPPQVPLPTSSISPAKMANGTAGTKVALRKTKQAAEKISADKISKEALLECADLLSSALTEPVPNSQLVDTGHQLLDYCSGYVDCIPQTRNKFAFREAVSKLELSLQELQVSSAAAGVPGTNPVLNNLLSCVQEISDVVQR
Description: as §1
as §2, with “Arg” for “p70S6K”, “50” for “100”, “EAIYAAPFAKKK,” for “KKRNRTLTV,”
as §3

[O-][n+]1nc(Nc2cccnc2)nc2ccccc21 [Example 4, (1-Oxy-benzo[1,2,4]triazin-3-yl)-pyridin-3-yl-amine]
P70S6 (h) % inhibition (p70S6K (h)): 0% | Chk1 (h) % inhibition (CHK1 (h)): 14% | AuroraA (h) % inhibition (Aurora-A (h)): 64%

CN(C)CCCOc1ccc(Cl)cc1NC(=O)Nc1nnc2ccccc2n1 [Example 9, 1-Benzo[1,2,4]triazin-3-yl-3-[5-chloro-2-(3-dimethylamino-propoxy)-phenyl]-urea]
inhibition at 100 µM (CHK1 (h)): 93%

Cc1cc(Nc2nc3ccccc3[n+]([O-])n2)n[nH]1 [Example 10, (5-Methyl-1H-pyrazol-3-yl)-(1-oxy-benzo[1,2,4]triazin-3-yl)-amine]
Chk1 (h) % inhibition (CHK1 (h)): 20% | AuroraA (h) % inhibition (Aurora-A (h)): 40%

[O-][n+]1nc(-c2cn[nH]c2)nc2ccccc21 [Example 12, 3-(1H-Pyrazol-4-yl)-benzo[1,2,4]triazine 1-oxide]
inhibition at 100 µM (p70S6K (h)): 87% | inhibition at 100 µM (CHK1 (h)): 3% | inhibition at 100 µM (Aurora-A (h)): 69% | inhibition at 100 µM (KDR (h)): 97%

c1ccc2nc(-c3cn[nH]c3)nnc2c1 [Example 13, 3-(1H-Pyrazol-4-yl)-benzo[1,2,4]triazine]
inhibition at 100 µM (p70S6K (h)): 92% | inhibition at 100 µM (CHK1 (h)): 13% | inhibition at 100 µM (Aurora-A (h)): 90% | inhibition at 100 µM (KDR (h)): 80%

Nc1nnc2cc(-c3ccn[nH]3)ccc2n1 [Example 14, 7-(2H-Pyrazol-3-yl)-benzo[1,2,4]triazin-3-ylamine]
inhibition at 100 µM (p70S6K (h)): 47% | inhibition at 100 µM (CHK1 (h)): 20% | inhibition at 100 µM (Aurora-A (h)): 81% | inhibition at 100 µM (KDR (h)): 89%

Nc1nc2ccc(-c3ccn[nH]3)cc2[n+]([O-])n1 [Example 15, 1-Oxy-7-(2H-pyrazol-3-yl)-benzo[1,2,4]triazin-3-ylamine]
P70S6 (h) % inhibition (p70S6K (h)): 29% | Chk1 (h) % inhibition (CHK1 (h)): 10% | AuroraA (h) % inhibition (Aurora-A (h)): 90% | KDR (h) % inhibition (KDR (h)): 46%

c1ccc2nc(-c3cc[nH]n3)nnc2c1 [Example 16, 3-(1H-Pyrazol-3-yl)-benzo[1,2,4]triazine]
inhibition at 100 µM (p70S6K (h)): 10% | inhibition at 100 µM (Aurora-A (h)): 41% | inhibition at 100 µM (KDR (h)): 17%

[O-][n+]1nc(-c2cc[nH]n2)nc2ccccc21 [Example 17, 3-(1H-Pyrazol-3-yl)-benzo[1,2,4]triazine 1-oxide]
inhibition at 100 µM (p70S6K (h)): 0% | inhibition at 100 µM (Aurora-A (h)): 39% | inhibition at 100 µM (KDR (h)): 0%

O=C(Nc1ccc2nncnc2c1)Nc1cnccn1 [Example 18, 1-Benzo[1,2,4]triazin-6-yl-3-pyrazin-2-yl-urea]
inhibition at 100 µM (CHK1 (h)): 23%

c1ccc2nc(Nc3ccc(N4CCNCC4)nc3)nnc2c1 [Example 19, Benzo[1,2,4]triazin-3-yl-(6-piperazin-1-yl-pyridin-3-yl)-amine]
inhibition at 100 µM (Aurora-A (h)): 79% | inhibition at 100 µM (Abl (h)): 89% | inhibition at 100 µM (Arg (h)): 95%

Clc1ccc2nnc(Nc3cccnc3)nc2c1 [Example 21, (6-Chloro-benzo[1,2,4]triazin-3-yl)-pyridin-3-yl-amine]
inhibition at 100 µM (Aurora-A (h)): 58% | inhibition at 100 µM (Abl (h)): 76% | inhibition at 100 µM (Arg (h)): 84%

[O-][n+]1nc(Nc2cccnc2)nc2cc(Cl)ccc21 [Example 22, (6-Chloro-1-oxy-benzo[1,2,4]triazin-3-yl)-pyridin-3-yl-amine]
AuroraA (h) % inhibition (Aurora-A (h)): 82%

c1ccc(-c2ccc3nnc(Nc4cccnc4)nc3c2)cc1 [Example 23, (6-Phenyl-benzo[1,2,4]triazin-3-yl)-pyridin-3-yl-amine]
inhibition at 100 µM (Aurora-A (h)): 68% | inhibition at 100 µM (Abl (h)): 80% | inhibition at 100 µM (Arg (h)): 83%

[O-][n+]1nc(Nc2cccnc2)nc2cc(-c3ccccc3)ccc21 [Example 24, (1-Oxy-6-phenyl-benzo[1,2,4]triazin-3-yl)-pyridin-3-yl-amine]
AuroraA (h) % inhibition (Aurora-A (h)): 92%

Nc1nc2cc(N3CCNCC3)ccc2[n+]([O-])n1 [Example 25, 1-Oxy-6-piperazin-1-yl-benzo[1,2,4]triazin-3-ylamine]
P70S6 (h) % inhibition (p70S6K (h)): 43% | KDR (h) % inhibition (KDR (h)): 18%

Nc1nnc2ccc(N3CCNCC3)cc2n1 [Example 26, 6-Piperazin-1-yl-benzo[1,2,4]triazin-3-ylamine]
inhibition at 100 µM (p70S6K (h)): 37% | inhibition at 100 µM (KDR (h)): 98%

Cl.Nc1nc2cc(OCC3CCNCC3)ccc2[n+]([O-])n1 [Example 27, 1-Oxy-6-(piperidin-4-ylmethoxy)-benzo[1,2,4]triazin-3-ylamine.hydrochloride]
P70S6 (h) % inhibition (p70S6K (h)): 62% | KDR (h) % inhibition (KDR (h)): 3%

Cl.Nc1nnc2ccc(OCC3CCNCC3)cc2n1 [Example 28, 6-(Piperidin-4-ylmethoxy)-benzo[1,2,4]triazin-3-ylamine.hydrochloride]
P70S6 (h) % inhibition (p70S6K (h)): 47% | KDR (h) % inhibition (KDR (h)): 6%

Nc1nc2cc(OCCc3ccc(Cl)c(Cl)c3)ccc2[n+]([O-])n1 [Example 29, 6-[2-(3,4-Dichloro-phenyl)-ethoxy]-1-oxy-benzo[1,2,4]triazin-3-ylamine]
P70S6 (h) % inhibition (p70S6K (h)): 49% | KDR (h) % inhibition (KDR (h)): 0%

Nc1nnc2ccc(OCCc3ccc(Cl)c(Cl)c3)cc2n1 [Example 30, 6-[2-(3,4-Dichloro-phenyl)-ethoxy]-benzo[1,2,4]triazin-3-ylamine]
inhibition at 100 µM (p70S6K (h)): 52% | inhibition at 100 µM (KDR (h)): 11%
